Source: patent US8058467B2, “Prostaglandin derivatives” (Nicox S.A., priority 2004, dated 2011)

How the values were obtained:
[1] = test system: rat pheochromocytoma cells (PC12); test: cGMP accumulation in PC12 cells (nitric oxide-mediated activity); format: cell-based; settings: for EC50: Rattus norvegicus, PC-12, 0.75 h, 30 μM YC-1, read-out: EC50 (effective concentration producing half maximal response), cGMP accumulation
Description: The formation of cyclic guanosine-3′,5′ monophosphate (cGMP) in cells in the eye is involved in the regulation of aqueous humor flow. Thus, elevation of cGMP levels leads to decreased aqueous humor production and reduction of intraocular pressure.
We measured the effects of test drugs on cGMP formation in a well established cell assay.
Undifferentiated pheochromocytoma cells (PC12) were used. The monolayer cells were incubated for 45 min in Hank's Balanced Salt Solution enriched with 10 mM Hepes, 5 mM MgCl2 and 0.05% ascorbic acid at the final pH of 7.4 and containing 100 μM of the phosphodiesterase inhibitor, isomethyl-butyl-xanthine (IBMX), 30 μM of the guanylyl cyclase […], YC-1, and the test drugs at the appropriate concentration. The reaction was terminated by the removal of the incubating buffer followed by the addition of […] of 100% ice-cold ethanol. The plate was then dried under hot air steam and the residue dissolved, extracted and analysed using commercially available cyclic cGMP enzyme immunoassay kit.

[2] = test system: carbomer-evoked increase in IOP; test: Intraocular pressure in carbomer-treated rabbits; format: in vivo, rabbit
Description: (§1) Male NZW rabbits ranging from 3-5 kgs of body weight were used in this study. Briefly, the ability of Latanoprost nitroderivative (compound 4, EXAMPLE 3) at reducing intraocular pressure (IOP) was tested in animals previously treated with intracameral injection of 0.25% carbomer solution installation until after a stable increase of the intraocular pressure was reached. In this particular study, test drugs were administered to one eye with the dosage schedule of 1 drop/eye/day for 5 days a week with a physiologic solution containing 0.005% of control or test compounds. The IOP was monitored 3 h after drug application, two-three times weekly for a total of 4 weeks. This concentration was chosen as it reflects that of latanoprost isopropyl ester currently used in clinic to treat the increase of IOP observed in glaucoma patients. Furthermore, at each visit, about 200 μl of aqueous humor was collected using a 30 gauge needle from both eyes under lidocaine anesthesia for further biochemical evaluation of cGMP, camp and nitrite/nitrate contents.

[3] = test system: aqueous humor cGMP, cAMP and NOx; test: cGMP, cAMP and NOx content of aqueous humor in carbomer-treated rabbits; format: in vivo, rabbit; settings: for NOx / cAMP / cGMP: aqueous humor; for NOx in intraocular aqueous humor (in words) / cGMP in intraocular aqueous humor (in words) / intraocular cAMP (in words): over the 4-week treatment
Description: as §1

[4] = 45 min, 100 μM IBMX, 30 μM YC-1
[5] = Day 2, 0.005% solution, 1 drop/eye/day, 3 h after application
[6] = Day 7, 0.005% solution, 1 drop/eye/day, 3 h after application
[7] = Day 10, 0.005% solution, 1 drop/eye/day, 3 h after application
[8] = Day 15, 0.005% solution, 1 drop/eye/day, 3 h after application
[9] = Day 17, 0.005% solution, 1 drop/eye/day, 3 h after application
[10] = Day 23, 0.005% solution, 1 drop/eye/day, 3 h after application
[11] = Day 25, 0.005% solution, 1 drop/eye/day, 3 h after application
[12] = Pre-treatment (baseline after intracameral 0.25% carbomer)

Structure (SMILES): O=C(CCC/C=C\C[C@@H]1[C@@H](CC[C@@H](O)CCc2ccccc2)[C@H](O)C[C@@H]1O)OCCCCO[N+](=O)[O-] (relative stereo) [Compound 1, [1R-[1α(Z),2α(R*),3α,5α]]-7-[3,5-dihydroxy-2-(3-hydroxy-5-phenylpentyl)cyclopentyl]-5-heptenoic acid 4-(nitrooxy)butyl ester]
- Emax (maximum effect), cGMP accumulation [1, 4]: 290 % over vehicle
- EC50 ([1]; 45 min, 100 μM IBMX): 2400 nM

Structure (SMILES): O=C(CCC/C=C\C[C@@H]1[C@@H](CC[C@@H](O)CCc2ccccc2)[C@H](O)C[C@@H]1O)Oc1cccc(CO[N+](=O)[O-])c1 (relative stereo) [Compound 4, [1R-[1α(Z),2β(R*),3α,5α]]-7-[3,5-dihydroxy-2-(3-hydroxy-5-phenylpentyl)cyclopentyl]-5-heptenoic acid 3-(nitrooxymethyl)phenyl ester]
- IOP [2, 5]: 31 ± 1 mmHg
- IOP [2, 6]: 26 ± 1 mmHg
- IOP [2, 7]: 20 ± 1 mmHg
- IOP [2, 8]: 18 ± 2 mmHg
- IOP [2, 9]: 16 ± 1 mmHg
- IOP [2, 10]: 15 ± 1 mmHg
- IOP [2, 11]: 14 ± 1 mmHg
- IOP [2, 12]: 42 ± 2 mmHg
- decrease of intraocular pressure ([2]; by the end of the study (4 weeks)): over 65%
- decrease of intraocular pressure ([2]; within 7 days of repeated treatments): about 50%
- NOx ([3]; I Week): 22 ± 2 nmol/mg prot
- cAMP ([3]; I Week): 600 ± 25 fmol/mg prot
- cGMP ([3]; I Week): 102 ± 5 fmol/mg prot
- NOx ([3]; II Week): 25 ± 3 nmol/mg prot
- cAMP ([3]; II Week): 650 ± 31 fmol/mg prot
- cGMP ([3]; II Week): 125 ± 5 fmol/mg prot
- NOx ([3]; III Week): 26 ± 3 nmol/mg prot
- cAMP ([3]; III Week): 680 ± 28 fmol/mg prot
- cGMP ([3]; III Week): 140 ± 5 fmol/mg prot
- NOx ([3]; IV Week): 28 ± 3 nmol/mg prot
- cAMP ([3]; IV Week): 660 ± 22 fmol/mg prot
- cGMP ([3]; IV Week): 160 ± 5 fmol/mg prot
- NOx ([3]; Pre-treatment): 17 ± 1 nmol/mg prot
- cAMP ([3]; Pre-treatment): 520 ± 20 fmol/mg prot
- cGMP ([3]; Pre-treatment): 88 ± 5 fmol/mg prot
- NOx in intraocular aqueous humor (in words) [3]: increased
- cGMP in intraocular aqueous humor (in words) [3]: increased
- intraocular cAMP (in words) [3]: remained unaltered
- Emax (maximum effect), cGMP accumulation [1, 4]: 450 % over vehicle
- EC50 ([1]; 45 min, 100 μM IBMX): 4400 nM

Structure (SMILES): COc1cc(/C=C/C(=O)OCCCCO[N+](=O)[O-])ccc1OC(=O)CCC/C=C\C[C@@H]1[C@@H](CC[C@@H](O)CCc2ccccc2)[C@H](O)C[C@@H]1O (relative stereo) [Compound 11, [1R-[1α(Z), 2β(R*),3α,5α]]-7-[3,5-dihydroxy-2-(3-hydroxy-5-phenylpentyl)cyclopentyl]-5-heptenoicacid[2-methoxy-4-[2-propenoyloxy(4-nitrooxybutyl)]]phenyl ester]
- Emax (maximum effect), cGMP accumulation [1, 4]: 480 % over vehicle
- EC50 ([1]; 45 min, 100 μM IBMX): 1500 nM

Structure (SMILES): CC(C)OC(=O)CCC/C=C\C[C@@H]1[C@@H](CC[C@@H](O)CCc2ccccc2)[C@H](O)C[C@@H]1O [Latanoprost isopropyl ester, reference compound]
- change of intraocular pressure (in words) ([2]; 0.005% solution, 1 drop/eye/day, 4 weeks): nor its isopropyl derivative elicited any appreciable change
- IOP [2, 5]: 34 ± 2 mmHg
- IOP [2, 6]: 33 ± 3 mmHg
- IOP [2, 7]: 30 ± 1 mmHg
- IOP [2, 8]: 31 ± 2 mmHg
- IOP [2, 9]: 30 ± 2 mmHg
- IOP [2, 10]: 32 ± 2 mmHg
- IOP [2, 11]: 30 ± 2 mmHg
- IOP [2, 12]: 37 ± 2 mmHg
- NOx ([3]; I Week): 18 ± 2 nmol/mg prot
- cAMP ([3]; I Week): 550 ± 22 fmol/mg prot
- cGMP ([3]; I Week): 88 ± 6 fmol/mg prot
- NOx ([3]; II Week): 18 ± 1 nmol/mg prot
- cAMP ([3]; II Week): 600 ± 30 fmol/mg prot
- cGMP ([3]; II Week): 98 ± 6 fmol/mg prot
- NOx ([3]; III Week): 19 ± 2 nmol/mg prot
- cAMP ([3]; III Week): 620 ± 31 fmol/mg prot
- cGMP ([3]; III Week): 99 ± 6 fmol/mg prot
- NOx ([3]; IV Week): 19 ± 2 nmol/mg prot
- cAMP ([3]; IV Week): 625 ± 31 fmol/mg prot
- cGMP ([3]; IV Week): 100 ± 6 fmol/mg prot
- NOx ([3]; Pre-treatment): 16 ± 1 nmol/mg prot
- cAMP ([3]; Pre-treatment): 510 ± 18 fmol/mg prot
- cGMP ([3]; Pre-treatment): 87 ± 6 fmol/mg prot
- NOx in intraocular aqueous humor (in words) [3]: did not significantly affect
- cGMP in intraocular aqueous humor (in words) [3]: did not significantly affect
- intraocular cAMP (in words) [3]: did not significantly affect

Structure (SMILES): CC(C)OC(=O)CCC/C=C\C[C@@H]1[C@@H](CC[C@@H](O)CCc2ccccc2)[C@H](O)C[C@@H]1O [Latanoprost, reference compound]
- cGMP accumulation (in words) ([1]; 1-50 μM): not shared
- EC50 (effective concentration producing half maximal response), cGMP accumulation [1, 4]: Not effective
- Emax (maximum effect), cGMP accumulation [1, 4]: Not effective
